Experimental findings from ChEMBL document CHEMBL4811239, “Insertion of metal carbenes into the anilinic N-H bond of unprotected aminobenzenesulfonamides delivers low nanomolar inhibitors of human carbonic anhydrase IX and XII isoforms” (Eur J Med Chem, 2021) are described below.

A word on the Ki: it is the dissociation constant of the complex between target and ligand, obtained from inhibition or displacement.

Active and inactive are the calls of the source. The calls are words filed in the database; no cut-off is given here.

Test [1] has as its target Carbonic anhydrase 12 (Homo sapiens, UniProt O43570). Nature of the test: Inhibition of recombinant human CA12 pre-incubated for 15 mins prior to testing by phenol red-based stopped-flow CO2 hydration assay.
Test [2] relates to MCF7. Nature of the test: Antiproliferative activity against human MCF7 cells assessed as cell survival at 100 uM after 72 hrs under hypoxic condition by MTT assay. It counts as functional. (Formazan colour is commonly taken as a measure of viable cells.)
In test [3] the test system is MDA-MB-231. Put plainly: Antiproliferative activity against human MDA-MB-231 cells assessed as reduction in cell viability at 100 uM after 72 hrs under normoxic condition by MTT assay. It counts as functional.
Test [4] concerns the target Carbonic anhydrase 1 (Homo sapiens, UniProt P00915). Put plainly: Inhibition of recombinant human CA1 pre-incubated for 15 mins prior to testing by phenol red-based stopped-flow CO2 hydration assay.
The subject of test [5] is MCF7. Put plainly: Antiproliferative activity against human MCF-7 cells assessed as cell survival at 100 uM after 72 hrs under normoxic condition by MTT assay. It counts as functional.
Test [6] concerns the target Carbonic anhydrase 9 (Homo sapiens, UniProt Q16790). Nature of the test: Inhibition of recombinant human CA9 pre-incubated for 15 mins prior to testing by phenol red-based stopped-flow CO2 hydration assay.
The test system of test [7] is MDA-MB-231. Nature of the test: Antiproliferative activity against human MDA-MB-231 cells assessed as reduction in cell viability at 100 uM after 72 hrs under hypoxic condition by MTT assay. It counts as functional.

Carbonic anhydrase 12, sequence (O43570 whole entry): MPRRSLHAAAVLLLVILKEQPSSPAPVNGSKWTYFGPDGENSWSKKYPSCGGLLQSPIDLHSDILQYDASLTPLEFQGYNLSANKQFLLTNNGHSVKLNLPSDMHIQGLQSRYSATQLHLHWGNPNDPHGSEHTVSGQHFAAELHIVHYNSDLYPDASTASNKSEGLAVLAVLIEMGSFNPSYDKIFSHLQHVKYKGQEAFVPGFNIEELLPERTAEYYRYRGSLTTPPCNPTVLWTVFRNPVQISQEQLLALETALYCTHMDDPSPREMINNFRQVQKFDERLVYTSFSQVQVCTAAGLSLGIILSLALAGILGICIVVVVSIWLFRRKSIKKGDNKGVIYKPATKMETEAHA
Carbonic anhydrase 1, sequence (P00915 whole entry): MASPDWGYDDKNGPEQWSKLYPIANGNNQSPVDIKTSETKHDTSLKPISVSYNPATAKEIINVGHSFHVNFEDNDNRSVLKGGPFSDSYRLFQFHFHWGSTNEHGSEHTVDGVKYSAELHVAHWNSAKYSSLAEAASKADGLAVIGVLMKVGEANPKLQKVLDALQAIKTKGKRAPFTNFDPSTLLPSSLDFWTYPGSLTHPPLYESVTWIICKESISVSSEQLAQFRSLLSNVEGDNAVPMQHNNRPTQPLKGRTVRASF

Take `CCOC(=O)C(C(=O)Nc1cccc(S(N)(=O)=O)c1)C(C)C` (configuration not stated): the Ki is 113 nM in test [1], 346 nM in test [4] and 70.1 nM in test [6]. Moreover, the result in test [2], in test [3], in test [5] and in test [7] was inactive.
As to `CCOC(=O)C(Nc1ccc(S(N)(=O)=O)cc1)c1ccc(Cl)cc1` (configuration not stated), the Ki in test [1] came to 63 nM; in test [4], 135 nM; in test [6], 54.3 nM. The outcome in test [2] and in test [5] was inactive. For the same compound, the Activity in test [3] and in test [7] was 30% in each case.
On to `CCOC(=O)C(Nc1ccc(S(N)(=O)=O)cc1)C(=O)c1ccccc1` (configuration not stated), for which the Ki in test [1] came out at 21.8 nM; in test [4] it was 245 nM; in test [6], 18 nM. In addition, the result in test [2], in test [3], in test [5] and in test [7] was inactive.
Take `COc1ccc(C(=O)CNc2ccc(S(N)(=O)=O)cc2)cc1`: the Ki in test [1] amounted to 81.7 nM; in test [4] it was 124 nM; in test [6], 10.1 nM. Besides, the result in test [2] and in test [5] was Active. For the same compound, the result in test [3] and in test [7] was inactive.
With `CCOC(=O)C(C(=O)Nc1ccc(S(N)(=O)=O)cc1)C(C)C` (configuration not stated), the result in test [2], in test [3], in test [5] and in test [7] was inactive. The figures for the Ki in test [4] and in test [6] were 56.9 nM and 32 nM, respectively.
As for `COC(=O)C(Nc1cccc(S(N)(=O)=O)c1)C(=O)c1ccc(OC)cc1` (configuration not stated), the result in test [2], in test [3], in test [5] and in test [7] was inactive. The results for the Ki in test [4] and in test [6] were 2550 nM and 91.9 nM, respectively.
As for `Cc1ccc(C(=O)CNc2cccc(S(N)(=O)=O)c2)cc1`, the Ki in test [1] is 208 nM; in test [4], 294 nM; in test [6], 63.9 nM. Also, the result in test [2], in test [3], in test [5] and in test [7] was inactive.
For `COc1ccccc1CC1=C(Nc2ccc(S(N)(=O)=O)cc2)C(=O)N(c2ccccc2)C1=O`, the Ki in test [1] is 87.9 nM; in test [4], over 10000 nM; in test [6], 68 nM. Moreover, the outcome in test [2] and in test [5] was Active.
On to `COC(=O)C(Nc1ccc(S(N)(=O)=O)cc1)C(=O)OC`, for which the result in test [2], in test [3], in test [5] and in test [7] was inactive. Besides, the values for the Ki in test [4] and in test [6] were 166 nM and 58.1 nM, respectively.
Take `COc1ccc(C(=O)CNc2cccc(S(N)(=O)=O)c2)cc1`: the Ki was 189 nM in test [1], 920 nM in test [4] and 54.3 nM in test [6]. In addition, the outcome in test [2], in test [3], in test [5] and in test [7] was inactive.
Regarding `CC(C)(C)C(=O)CNc1cccc(S(N)(=O)=O)c1`, the Ki in test [1] amounted to 24.1 nM; in test [4], 343 nM; in test [6] it was 41.7 nM. The outcome in test [2], in test [3], in test [5] and in test [7] was inactive.
`CC(C)C(C(=O)Nc1ccc(S(N)(=O)=O)cc1)C(=O)c1ccccc1` (configuration not stated): the Ki in test [1] came to 35.6 nM; in test [4] it was 183 nM; in test [6], 30.1 nM. Besides, the outcome in test [2], in test [3], in test [5] and in test [7] was inactive.
As for `CCOC(=O)C(Nc1cccc(S(N)(=O)=O)c1)C(=O)c1ccccc1` (configuration not stated), the inhibition constant Ki in test [1] is 82.9 nM; in test [4], 1570 nM; in test [6], 58.6 nM. In addition, the outcome in test [2] and in test [5] was inactive. In addition, the Activity in test [3] and in test [7] was 30% each time.
As for `NS(=O)(=O)c1ccc(NC2CCN(c3nccs3)C2=O)cc1` (configuration not stated), the Ki in test [1] stood at 18.8 nM; in test [4], 138 nM; in test [6], 36.8 nM. Moreover, the result in test [2], in test [3], in test [5] and in test [7] was inactive.
`CCN(CC)C(=O)CNc1ccc(S(N)(=O)=O)cc1`: the Ki turned out to be 33.2 nM in test [1], 243 nM in test [4] and 89.1 nM in test [6]. Also, the result in test [2], in test [3], in test [5] and in test [7] was inactive.
Regarding `NS(=O)(=O)c1ccc(NC2CCN(c3ccccc3)C2=O)cc1` (configuration not stated), the Ki in test [1] is 24.9 nM; in test [4] it was 62 nM; in test [6], 9.5 nM. Besides, the outcome in test [2], in test [3], in test [5] and in test [7] was inactive.
Regarding `COCC(=O)C(Nc1ccc(S(N)(=O)=O)cc1)C(=O)OC` (configuration not stated), the figures for the Ki in test [1], in test [4] and in test [6] were 24.7 nM, 69.8 nM and 64.1 nM, respectively. The result in test [2], in test [3], in test [5] and in test [7] was inactive.
As to `COC(=O)C(Nc1ccc(S(N)(=O)=O)cc1)C(=O)c1ccccc1OC` (configuration not stated), the figures for the Ki in test [1], in test [4] and in test [6] were 26.5 nM, 829 nM and 25.6 nM, respectively.
`CC(C(=O)Nc1ccc(S(N)(=O)=O)cc1)C(=O)c1ccc(Cl)cc1` (configuration not stated): the figures for the Ki in test [1], in test [4] and in test [6] were 22.6 nM, 215 nM and 34.3 nM, respectively. Further, the outcome in test [2] and in test [5] was Active. For the same compound, the Activity in test [3] and in test [7] was 30% in each case.
`CC(C)C(C(=O)Nc1cccc(S(N)(=O)=O)c1)C(=O)c1ccccc1` (configuration not stated): the Ki in test [1] was 59.6 nM; in test [4], 1360 nM; in test [6], 71.1 nM. Besides, the result in test [2], in test [3], in test [5] and in test [7] was inactive.
Take `CCOC(=O)C(Nc1ccc(S(N)(=O)=O)cc1)C(=O)OCC`: the Ki in test [1] is 57.2 nM; in test [4], 135 nM; in test [6] it was 52.4 nM. Besides, the outcome in test [2], in test [3], in test [5] and in test [7] was inactive.
`NS(=O)(=O)c1ccc(NCC(=O)N2CCN(Cc3ccc(Cl)cc3)CC2)cc1`: the Ki was 11.3 nM in test [1], 146 nM in test [4] and 21.2 nM in test [6]. Further, the result in test [2], in test [3], in test [5] and in test [7] was inactive.
As for `NS(=O)(=O)c1ccc(NC2CCN(c3cccc(C(F)(F)F)c3)C2=O)cc1` (configuration not stated), the Ki amounted to 13.8 nM in test [1], 463 nM in test [4] and 19.7 nM in test [6]. The result in test [2], in test [3], in test [5] and in test [7] was inactive.
Take `CCOC(=O)C(Nc1ccc(S(N)(=O)=O)cc1)C(=O)c1ccc(OC)cc1` (configuration not stated): the Ki worked out at 16.5 nM in test [1], 314 nM in test [4] and 12.5 nM in test [6]. Besides, the result in test [2], in test [3], in test [5] and in test [7] was inactive.
With `CCOC(=O)C(Nc1ccc(S(N)(=O)=O)cc1)c1ccc(OC)c(OC)c1` (configuration not stated), the results for the Ki in test [1], in test [4] and in test [6] were 35.7 nM, 5880 nM and 6.5 nM, respectively. Besides, the result in test [2], in test [3], in test [5] and in test [7] was inactive.
As for `CCOC(=O)C(C(=O)Nc1ccc(S(N)(=O)=O)cc1)c1ccccc1` (configuration not stated), the values for the Ki in test [1], in test [4] and in test [6] were 41.6 nM, 311 nM and 61.5 nM, respectively. In addition, the result in test [2], in test [3], in test [5] and in test [7] was inactive.
For `CCN(CC)C(=O)CNc1cccc(S(N)(=O)=O)c1`, the results for the Ki in test [1], in test [4] and in test [6] were 83.7 nM, 70.6 nM and 45.9 nM, respectively. Besides, the result in test [2], in test [3], in test [5] and in test [7] was inactive.
Regarding `NS(=O)(=O)c1ccc(NC2CCCCCC2=O)cc1` (configuration not stated), the Ki in test [1] came to 49.2 nM; in test [4], 202 nM; in test [6] it was 6.4 nM. Moreover, the outcome in test [2] and in test [5] was inactive. Moreover, the Activity in test [3] and in test [7] was 30% each time.
